# Measured values taken from paper PMC6126659, “Structural basis for light control of cell development revealed by crystal structures of a myxobacterial phytochrome” (IUCrJ, 2018).
# Tests used:
# Type in all cases: binding
# [1] = target: T1, SaBphP1-PCM (PAS-GAF-PHY) (Allostigmatella aurantiaca, UniProt Q097N3, D208T/T289H); assay: UV-vis absorption spectroscopy of bilin-bound protein; conditions: covalent; 740 / 700 nm illumination, room temperature
# T1 construct: gene STIAU_3396; photosensory core module PAS-GAF-PHY, residues 1-516, pET28c(+), E. coli BL21(DE3) co-expressing heme oxygenase; dimer; histidine kinase domain absent
# T1 sequence (Q097N3 entry or part of it D208T/T289H): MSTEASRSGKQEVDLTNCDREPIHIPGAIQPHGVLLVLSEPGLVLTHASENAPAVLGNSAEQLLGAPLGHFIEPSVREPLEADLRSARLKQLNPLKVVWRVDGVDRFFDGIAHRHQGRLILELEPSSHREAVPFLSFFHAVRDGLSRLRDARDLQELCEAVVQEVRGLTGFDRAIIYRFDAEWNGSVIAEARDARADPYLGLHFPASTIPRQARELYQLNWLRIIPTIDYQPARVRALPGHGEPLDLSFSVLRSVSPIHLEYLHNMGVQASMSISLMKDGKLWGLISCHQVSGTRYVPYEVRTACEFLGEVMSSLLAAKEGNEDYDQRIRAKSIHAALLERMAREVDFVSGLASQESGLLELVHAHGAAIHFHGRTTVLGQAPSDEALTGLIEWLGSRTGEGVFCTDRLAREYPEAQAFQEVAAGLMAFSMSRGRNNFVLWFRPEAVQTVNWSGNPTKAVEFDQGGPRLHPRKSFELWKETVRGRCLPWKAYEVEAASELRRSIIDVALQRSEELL
# [2] = target: T2, SaBphP1-PCM (PAS-GAF-PHY) (Allostigmatella aurantiaca, UniProt Q097N3); assay: X-ray crystallography ([…] K, […] A); conditions: covalent, Cys18; dark-adapted Pr state; pH 6.2
# T2 construct: gene STIAU_3396; photosensory core module PAS-GAF-PHY, residues 1-516, pET28c(+), E. coli BL21(DE3) co-expressing heme oxygenase; dimer; histidine kinase domain absent
# T2 sequence (Q097N3 entry or part of it): as the sequence (Q097N3 entry or part of it D208T/T289H) above, with T208D, H289T counted along it
# [3] = target: T3, SaBphP1-PCM (PAS-GAF-PHY) (Allostigmatella aurantiaca, UniProt Q097N3, Y262F/T289H); assay: UV-vis absorption spectroscopy of bilin-bound protein; conditions: covalent; dark / 700 / 750 nm illumination, room temperature
# T3 construct: gene STIAU_3396; photosensory core module PAS-GAF-PHY, residues 1-516, pET28c(+), E. coli BL21(DE3) co-expressing heme oxygenase; dimer; histidine kinase domain absent
# T3 sequence (Q097N3 entry or part of it Y262F/T289H): as the sequence (Q097N3 entry or part of it D208T/T289H) above, with T208D, Y262F counted along it
# [4] = target: T4, SaBphP1-PCM (PAS-GAF-PHY) (Allostigmatella aurantiaca, UniProt Q097N3, T289H); assay: X-ray crystallography ([…] K, […] A; XFEL […] K, […] A); conditions: covalent, Cys18; dark-adapted Pr state; pH 6.2
# T4 construct: gene STIAU_3396; photosensory core module PAS-GAF-PHY, residues 1-516, pET28c(+), E. coli BL21(DE3) co-expressing heme oxygenase; dimer; histidine kinase domain absent
# T4 sequence (Q097N3 entry or part of it T289H): as the sequence (Q097N3 entry or part of it D208T/T289H) above, with T208D counted along it
# [5] = target: T5, SaBphP1-CBD (PAS-GAF) (Allostigmatella aurantiaca, UniProt Q097N3); assay: X-ray crystallography ([…] K, […] A); conditions: covalent, Cys18; dark-adapted Pr state; pH 8.5
# T5 construct: gene STIAU_3396; crystallographic dimer
# T5 sequence (Q097N3 entry or part of it): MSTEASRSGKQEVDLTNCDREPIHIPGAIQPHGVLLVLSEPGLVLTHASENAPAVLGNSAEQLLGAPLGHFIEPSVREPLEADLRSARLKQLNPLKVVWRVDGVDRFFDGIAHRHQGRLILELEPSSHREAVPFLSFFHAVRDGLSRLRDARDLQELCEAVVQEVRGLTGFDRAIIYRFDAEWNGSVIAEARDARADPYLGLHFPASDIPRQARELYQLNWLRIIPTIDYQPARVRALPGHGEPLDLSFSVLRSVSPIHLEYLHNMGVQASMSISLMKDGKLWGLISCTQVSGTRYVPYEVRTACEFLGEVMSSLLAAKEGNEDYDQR
smiles,measurement,setting,value
C=CC1=C(C)C(=Cc2[nH]c(C=C3N=C(C=C4NC(=O)C(C)=C4C=C)C(C)=C3CCC(=O)O)c(CCC(=O)O)c2C)NC1=O [biliverdin],UV-vis absorption spectroscopy of bilin-bound protein,[1],The mutation of Asp208 to threonine (D208T) abolishes the formation of a stable E-configuration
same,"X-ray crystallography (100 K, 2.25 A)",[2],electron density that appeared in the chromophore binding pocket was interpreted by a biliverdin linked to Cys18
same,UV-vis absorption spectroscopy of bilin-bound protein,[3],the dark-adapted spectrum of the Y262F T289H double mutant
same,"X-ray crystallography (100 K, 2.65 A; XFEL 293 K, 3.15 A)",[4],the BV A ring tilts with the covalent bond to the Cys18 S atom
same,"X-ray crystallography (100 K, 2.25 A)",[5],The BV chromophore is bound to Cys18 close to the N-terminus
